Test results as given in article PMC10762068, “Selective blockade of Cav1.2 (α1C) versus Cav1.3 (α1D) L-type calcium channels by the black mamba toxin calciseptine” (Nature Communications, 2024).
Entries after “also recorded” stand apart in the source; their conditions may differ. Positions of bridges follow the written chain, without caps; N, C: chain ends. No end group written: not given here.

Experiments:
[1] = test system: isolated perfused hearts from mice; assay: Whole heart contractility and heart rate, Langendorff perfused mouse heart; conditions: native Cas 100 nM, n=5
Description: Hearts were isolated from adult male mice anaesthetized with a first intraperitoneal injection of a mixture comprising ketamine (100 mg/kg) and xylazine (10 mg/kg), and a second one of sodium pentobarbital (45 mg/kg; Ceva Santé Animale, France). An intraperitoneal injection of heparin (7500IU/kg; Sanofi Aventis, France) was administered in order to avoid thrombus formation. A thoracotomy was performed and beating hearts were quickly removed and excised into ice-cold modified Krebs-Henseleit buffer containing (mM): NaCl 116; KCl 5; MgSO4 1.1; NaH2P0_4 0.35; NaHCO3 27; CaC1_2 1.8 and glucose 10. Buffer was gassed with 95% O2 and 5% CO2, giving a pH of 7.4 at 37 °C. Before use, the buffer was initially passed through a 0.2 µm filter (Sarstedt, USA). The aorta was cannulated under magnification and hearts were quickly mounted and perfused on the Langendorff perfusion system (Isolated heart system, EMKA Technologies, France). The coronary circulation was perfused at a constant pressure (70 mmHg) over a 1 to 4 ml/min flow range with modified Krebs-Henseleit buffer. During the stabilization phase, the heart was continuously perfused with modified Krebs-Henseleit and the electrocardiogram (ECG) was recorded through Ag/AgCl electrodes positioned on the right atrium and near the apex. Heart temperature was of 37 °C as continuously assessed by a probe positioned on the base of the heart and recorded by using a TH-5 monitoring thermometer (Phymep, USA). LV pressure was continuously measured by a home-made balloon inserted into the LV cavity by the left atrium and connected to the EMKA amplifier. After 20 min of stabilization (baseline), 100 nM Cas was perfused into the heart for 7 min. Then, the modified Krebs-Henseleit buffer was perfused for 1 h allowing to wash the effects of the Cas toxin. During the whole ex vivo protocol, the left ventricular pressure signals were continuously digitized at […] and recorded using an IOX data acquisition system (EMKA Technologies, France). Data were analyzed using ecgAUTOv3.3.3.12 (EMKA technologies) and MATLAB-R2021b (The MathWorks) custom-made script
In all experiments of cellular electrophysiology, we employed synthetized analog of Cas, commercially available at Latoxan (ID: L8109). The native peptide was purified from the venom of Dendroaspis polylepis purchased from Latoxan, as previoulsly described. The pure peptide was obtained after gel filtration, cation exchange and C18 reversed phase chromatography. Its measured molecular mass (7036.26 Da average) was in accordance with the mass calculated from sequence data (7036.22 Da).

[2] = test system: Cav2.1 P/Q type; assay: Ca2+ current in HEK-293T cells expressing Cav2.1; format: cell-based; conditions: Cas 300 nM (n=10/N=3) and 1 µM (n=10/N=3); holding -80 mV, step 0 mV
Description: HEK-293T (RRID:CVCL_2737) were obtained from the European Collection of Authenticated Cell Cultures (ECACC 96121229). The identity of HEK-293T has been confirmed by STR profiling and the cells have been eradicated from mycoplasma at ECACC. We routinely tested the cells for the absence of the mycoplasma contamination. Cells were cultivated at 37 °C in DMEM supplemented with GlutaMax, 10% fetal bovine serum and 1% penicillin/streptomycin (Invitrogen, Fisher Scientific, France). […]
Macroscopic currents in HEK-293T cells were recorded at room temperature using an Axopatch 200B or Multiclamp 700B patchclamp amplifier (Molecular Devices, Sunnyvale CA). […]
In all experiments of cellular electrophysiology, we employed synthetized analog of Cas, commercially available at Latoxan (ID: L8109). […] Its measured molecular mass (7036.26 Da average) was in accordance with the mass calculated from sequence data (7036.22 Da). […]
n=10/N=3) channels. Peak current density wa s recorded starting f rom a holding potential of -80mV using an activating voltage step at -30mV for Cav3.1, f ro m a holding potential of -90mV using an activating voltage step at +20mV for Cav2.2 and f rom a holding potential of -80mV using an activating voltage step at 0mV for Cav2.1. Exam ples of recorded traces are reported. […]

[3] = test system: T-type Ca^2+ channel; conditions: cited from earlier work
Excerpt: (§1) Animal venoms constitute an immense reservoir for identification of new toxins and toxin-derived tools for modulating the physiological function of ion channels. In particular, toxins showing three-fingers molecular scaffold class include several cardiotoxic peptides that abound in snake venoms. Three fingers toxin peptides potently block a variety of proteins including nicotinic receptors, acetylcholinesterase, acid-sensitive ion channels (ASIC)[14], as well as cytotoxins that disrupt the lipid membrane. More than 30 years ago, M. Lazdunski ‘s group purified a 60-amino acid three- ...

[4] = test system: skeletal muscle (Cav1.1) L-type Ca^2+ channel; conditions: cited from earlier work
Excerpt: as §1

[5] = test system: voltage sensitive K^+ channels; conditions: cardiac ventricular cells, NlE115 neuroblastoma cells, RINmSF and HIT insulinomas, chicken dorsal root ganglia; cited from earlier work
Excerpt: as §1

[6] = test system: voltage sensitive Na^+ channels; conditions: cardiac ventricular cells, NlE115 neuroblastoma cells, RINmSF and HIT insulinomas, chicken dorsal root ganglia; cited from earlier work
Excerpt: as §1

RICYIHKASLPRATKTCVENTCYKMFIRTQREYISERGCGCPTAMWPYQTECCKGDRCNK (disulfide 3-22, 17-39, 41-52, 53-58 (inferred)) [Cas, calciseptine]
episodes of arrhythmia [1]: did not observe episodes of arrhythmia | left ventricular (LV) contraction amplitude ([1]; perfused 7 min, 37 °C, before 51 ± 3 mmHg, mean ± SEM): 9 ± 2 mmHg | contraction velocity (dP/dt max) ([1]; before 1.7 ± 0.2, mean ± SEM): 0.4 ± 0.1 mmHg/ms | baseline diastolic pressure ([1]; before 8 ± 2 mmHg, mean ± SEM): 8 ± 3 mmHg | relaxation time constant (Ƭ) ([1]; before 10 ± 1 ms, not affected, mean ± SEM): 13 ± 2 ms | time-to-peak interval (time to maximal pressure) ([1]; before 54 ± 1 ms, not affected, mean ± SEM): 50 ± 3 ms | averaged inter-beat (RR) interval ([1]; before 273 ± 17 ms, p > 0.05, mean ± SEM): 271 ± 17 ms | relaxation velocity (dP/dt min) ([1]; before −1.2 ± 0.1, mean ± SEM): −0.1 ± 0.1 mmHg/ms | effect on Cav2.1 current [2]: failed to detect inhibitory effect; also recorded: had no effect | effect on T-type Ca2+ channel [3]: without affecting | effect on skeletal muscle (Cav1.1) L-type Ca2+ channel [4]: without affecting | effect on voltage sensitive K+ channels [5]: does not affect | effect on voltage sensitive Na+ channels [6]: does not affect
